Source: PubChem BioAssay (NCI)
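Values below derive from 48-hour exposures of cells grown in 96-well plates, with endpoints linearly interpolated between the two concentrations bracketing the appropriate inhibition level. Here, GI50 denotes the concentration required for 50% inhibition of growth. TGI: concentration producing complete growth inhibition.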

Experiments:
Assay in all cases: growth of human tumour cells (NCI), 48 h
K-562 leukemia = tested on: K-562 leukemia
UACC-62 melanoma = tested on: UACC-62 melanoma
SK-MEL-5 melanoma = tested on: SK-MEL-5 melanoma
NCI/ADR-RES ovarian = tested on: NCI/ADR-RES ovarian
SF-295 CNS = tested on: SF-295 CNS
KM12 colon = tested on: KM12 colon
MOLT-4 leukemia = tested on: MOLT-4 leukemia
HCT-116 colon = tested on: HCT-116 colon
RXF 393 renal = tested on: RXF 393 renal
BT-549 breast = tested on: BT-549 breast
SN12C renal = tested on: SN12C renal
A498 renal = tested on: A498 renal
CCRF-CEM leukemia = tested on: CCRF-CEM leukemia
HS 578T breast = tested on: HS 578T breast
M14 melanoma = tested on: M14 melanoma
SF-268 CNS = tested on: SF-268 CNS
DU-145 prostate = tested on: DU-145 prostate
MDA-MB-231 breast = tested on: MDA-MB-231 breast
EKVX NSCLC = tested on: EKVX NSCLC
SK-MEL-2 melanoma = tested on: SK-MEL-2 melanoma
OVCAR-4 ovarian = tested on: OVCAR-4 ovarian
SNB-19 CNS = tested on: SNB-19 CNS
SK-MEL-28 melanoma = tested on: SK-MEL-28 melanoma
MCF7 breast = tested on: MCF7 breast
HCT-15 colon = tested on: HCT-15 colon
786-0 renal = tested on: 786-0 renal
SF-539 CNS = tested on: SF-539 CNS
UACC-257 melanoma = tested on: UACC-257 melanoma
NCI-H460 lung = tested on: NCI-H460 lung
PC-3 prostate = tested on: PC-3 prostate
OVCAR-3 ovarian = tested on: OVCAR-3 ovarian
HOP-92 NSCLC = tested on: HOP-92 NSCLC
ACHN renal = tested on: ACHN renal
SK-OV-3 ovarian = tested on: SK-OV-3 ovarian
NCI-H226 lung = tested on: NCI-H226 lung
OVCAR-8 ovarian = tested on: OVCAR-8 ovarian
TK-10 renal = tested on: TK-10 renal
A549 NSCLC = tested on: A549 NSCLC
SR leukemia = tested on: SR leukemia
NCI-H522 lung = tested on: NCI-H522 lung
LOX IMVI melanoma = tested on: LOX IMVI melanoma
HOP-62 NSCLC = tested on: HOP-62 NSCLC
MALME-3M melanoma = tested on: MALME-3M melanoma
OVCAR-5 ovarian = tested on: OVCAR-5 ovarian
HCC-2998 colon = tested on: HCC-2998 colon
SNB-75 CNS = tested on: SNB-75 CNS
IGROV1 ovarian = tested on: IGROV1 ovarian
SW-620 colon = tested on: SW-620 colon
UO-31 renal = tested on: UO-31 renal
CAKI-1 renal = tested on: CAKI-1 renal
HL-60(TB) leukemia = tested on: HL-60(TB) leukemia
COLO 205 colon = tested on: COLO 205 colon
RPMI-8226 leukemia = tested on: RPMI-8226 leukemia
HT29 colon = tested on: HT29 colon
T-47D breast = tested on: T-47D breast
U251 CNS = tested on: U251 CNS
NCI-H23 lung = tested on: NCI-H23 lung

C[C@]12CC[C@@H]3c4cc(OC(F)F)c(O)cc4CC[C@H]3[C@@H]1CC[C@@H]2OS(N)(=O)=O
GI50 (K-562 leukemia): 0.38 µM
TGI (K-562 leukemia): > 100 µM
GI50 (UACC-62 melanoma): 0.403 µM
TGI (UACC-62 melanoma): 18.2 µM
GI50 (SK-MEL-5 melanoma): 0.634 µM
TGI (SK-MEL-5 melanoma): 13.3 µM
GI50 (NCI/ADR-RES ovarian): 0.484 µM
TGI (NCI/ADR-RES ovarian): 25.3 µM
GI50 (SF-295 CNS): 0.33 µM
TGI (SF-295 CNS): 3.02 µM
GI50 (KM12 colon): 0.545 µM
TGI (KM12 colon): 31 µM
GI50 (MOLT-4 leukemia): 0.598 µM
TGI (MOLT-4 leukemia): > 100 µM
GI50 (HCT-116 colon): 0.419 µM
TGI (HCT-116 colon): 18.9 µM
GI50 (RXF 393 renal): 0.315 µM
TGI (RXF 393 renal): 6.42 µM
GI50 (BT-549 breast): 2.8 µM
TGI (BT-549 breast): 45.3 µM
GI50 (SN12C renal): 1.02 µM
TGI (SN12C renal): 70.5 µM
GI50 (A498 renal): 0.321 µM
TGI (A498 renal): 4.35 µM
GI50 (CCRF-CEM leukemia): 0.393 µM
TGI (CCRF-CEM leukemia): > 100 µM
GI50 (HS 578T breast): 0.475 µM
TGI (HS 578T breast): 48.8 µM
GI50 (M14 melanoma): 0.511 µM
TGI (M14 melanoma): 25.9 µM
GI50 (SF-268 CNS): 3.15 µM
TGI (SF-268 CNS): > 100 µM
GI50 (DU-145 prostate): 1.55 µM
TGI (DU-145 prostate): > 100 µM
GI50 (MDA-MB-231 breast): 2.68 µM
TGI (MDA-MB-231 breast): 41.5 µM
GI50 (EKVX NSCLC): 1.51 µM
TGI (EKVX NSCLC): > 100 µM
GI50 (SK-MEL-2 melanoma): 0.88 µM
TGI (SK-MEL-2 melanoma): 55.8 µM
GI50 (OVCAR-4 ovarian): 15.8 µM
TGI (OVCAR-4 ovarian): 97.6 µM
GI50 (SNB-19 CNS): 0.551 µM
TGI (SNB-19 CNS): > 100 µM
GI50 (SK-MEL-28 melanoma): 10.5 µM
TGI (SK-MEL-28 melanoma): 78.2 µM
GI50 (MCF7 breast): 0.566 µM
TGI (MCF7 breast): 47.1 µM
GI50 (HCT-15 colon): 0.458 µM
TGI (HCT-15 colon): 26.8 µM
GI50 (786-0 renal): 1.26 µM
TGI (786-0 renal): > 100 µM
GI50 (SF-539 CNS): 0.455 µM
TGI (SF-539 CNS): 14.4 µM
GI50 (UACC-257 melanoma): 16.7 µM
TGI (UACC-257 melanoma): 79.6 µM
GI50 (NCI-H460 lung): 0.422 µM
TGI (NCI-H460 lung): 15.4 µM
GI50 (PC-3 prostate): 0.729 µM
TGI (PC-3 prostate): 97.6 µM
GI50 (OVCAR-3 ovarian): 0.365 µM
TGI (OVCAR-3 ovarian): 16.6 µM
GI50 (HOP-92 NSCLC): 6.84 µM
TGI (HOP-92 NSCLC): 79.2 µM
GI50 (ACHN renal): 0.735 µM
TGI (ACHN renal): > 100 µM
GI50 (SK-OV-3 ovarian): 2.77 µM
TGI (SK-OV-3 ovarian): 98 µM
GI50 (NCI-H226 lung): 6.64 µM
TGI (NCI-H226 lung): 60.5 µM
GI50 (OVCAR-8 ovarian): 1.55 µM
TGI (OVCAR-8 ovarian): 68.1 µM
GI50 (TK-10 renal): 14.6 µM
TGI (TK-10 renal): > 92.5 µM
GI50 (A549 NSCLC): 0.968 µM
TGI (A549 NSCLC): > 100 µM
GI50 (SR leukemia): 0.422 µM
TGI (SR leukemia): > 100 µM
GI50 (NCI-H522 lung): 0.324 µM
TGI (NCI-H522 lung): 18.4 µM
GI50 (LOX IMVI melanoma): 0.585 µM
TGI (LOX IMVI melanoma): 22.6 µM
GI50 (HOP-62 NSCLC): 0.693 µM
TGI (HOP-62 NSCLC): 35.7 µM
GI50 (MALME-3M melanoma): 0.348 µM
TGI (MALME-3M melanoma): 27.4 µM
GI50 (OVCAR-5 ovarian): 3.51 µM
TGI (OVCAR-5 ovarian): > 100 µM
GI50 (HCC-2998 colon): 1.94 µM
TGI (HCC-2998 colon): 33.4 µM
GI50 (SNB-75 CNS): 0.23 µM
TGI (SNB-75 CNS): 0.945 µM
GI50 (IGROV1 ovarian): 0.687 µM
TGI (IGROV1 ovarian): > 100 µM
GI50 (SW-620 colon): 0.417 µM
TGI (SW-620 colon): > 100 µM
GI50 (UO-31 renal): 1.11 µM
TGI (UO-31 renal): 37.6 µM
GI50 (CAKI-1 renal): 0.548 µM
TGI (CAKI-1 renal): > 70.2 µM
GI50 (HL-60(TB) leukemia): 0.313 µM
TGI (HL-60(TB) leukemia): 2.8 µM
GI50 (COLO 205 colon): 1.1 µM
TGI (COLO 205 colon): > 40 µM
GI50 (RPMI-8226 leukemia): 0.568 µM
TGI (RPMI-8226 leukemia): 46.9 µM
GI50 (HT29 colon): 0.846 µM
TGI (HT29 colon): 17.8 µM
GI50 (T-47D breast): 1.02 µM
TGI (T-47D breast): 50.7 µM
GI50 (U251 CNS): 0.549 µM
TGI (U251 CNS): 19.5 µM
GI50 (NCI-H23 lung): 1.46 µM
TGI (NCI-H23 lung): 50.8 µM
